Values after ≈ are worked out from the molar mass of the structure shown.
Assays:
[1] = test system: Jurkat (acute lymphoblastic leukemia, ALL); experiment: MTT growth inhibition of leukemia cells, 72 h; type: cell-based, human; conditions: Homo sapiens, 72 h; for IC50: read-out: IC50; for IC90: read-out: IC90
Description: (§1) Leukemia cell lines: leukemia cell lines: K562/adr (drug-resistant, chronic myeloid leukemia, CML), NB4 (acute promyelocytic leukemia, AML), Kasumi-1 (acute myeloid leukemia M2 type, AML-M2), and Jurkat (acute lymphoblastic leukemia, ALL), all of which are donated by Cancer Research Institute of Zhejiang University, China; and H9 (acute lymphoblastic leukemia, ALL), which is purchased from China Center for Type Culture Collection (CCTCC).
(§2) The standard sample of tanshinone I (TA) and the 2-aminated methylene or 2-esterified methylene tanshinone I derivatives of the present invention are sufficiently dissolved with dimethylsulfoxide to produce a stock solution of 10 mg/mL, which is refrigerated at 4° C. and stored in dark, and is diluted with a cell culture medium to the desired concentration prior to experimentation.
(§3) Obtaining 6000 well-growing leukemia cells and inoculating them into wells of a 96-well cell culture plate. The culture medium is the RPMI-1640 cell culture medium containing 10% fetal bovine serum. After adding on the second day the 2-aminated methylene or 2-esterified methylene tanshinone I derivatives of different concentrations and mixing uniformly, placing the plate in a carbon dioxide cell incubator (5% CO2) at 37° C. and incubated for 72 hours. Then the viable cell concentration is determined by MTT method.

[2] = test system: NB4 (acute promyelocytic leukemia, AML); experiment: MTT growth inhibition of leukemia cells, 72 h; type: cell-based, human; conditions: Homo sapiens, NB4, 72 h; for IC50: read-out: IC50; for IC90: read-out: IC90
Description: as §1, §2, §3

[3] = test system: K562/adr (drug-resistant, chronic myeloid leukemia, CML); experiment: MTT growth inhibition of leukemia cells, 72 h; type: cell-based, human; conditions: Homo sapiens, K562/Adr; for IC50: read-out: IC50; for IC90: read-out: IC90
Description: as §1, §2, §3

[4] = test system: Kasumi-1 (acute myeloid leukemia M2 type, AML-M2); experiment: MTT growth inhibition of leukemia cells, 72 h; type: cell-based, human; conditions: Homo sapiens, Kasumi-1, 72 h; for IC50: read-out: IC50; for IC90: read-out: IC90
Description: as §1, §2, §3

[5] = test system: H9 (acute lymphoblastic leukemia, ALL); experiment: MTT growth inhibition of leukemia cells, 72 h; type: cell-based, human; conditions: Homo sapiens, H9, 72 h; for IC50: read-out: IC50; for IC90: read-out: IC90
Description: as §1, §2, §3

[6] = test system: MGC 803 (human gastric cancer cell); experiment: MTT growth inhibition of human solid tumor cells, 72 h; type: cell-based; conditions: Homo sapiens, MGC-803, 72 h; for IC50: read-out: IC50; for IC90: read-out: IC90
Method: (§4) Hep-2 (laryngeal carcinoma), A549 (human lung cancer), CaES-17 (esophageal cancer cell), PC-3 (prostate cancer), CNE (nasopharyngeal carcinoma cell), and SK-OV-3 (ovarian cancer cell), all of which are purchased from China Center For Type Culture Collection; RKO (human colon adenocarcinoma cell), MGC 803 (human gastric cancer cell), MG63 (osteosarcoma) and U87 MG (malignant glioma cell), all of which are purchased from Fuxiang Bio-tech Co. Ltd., Shanghai, China; PANC-1 (pancreatic cancer), Hep G2 (human liver cancer cell), Becap37 (human breast cancer cell) and Hela (human cervical cancer cell), all of which are donated by Cancer Research Institute of Zhejiang University, China.
as §2
(§5) Obtaining 4000 well-growing human solid tumor cells and inoculating them into wells of a 96-well cell culture plate. The culture medium is DMEM High Glucose cell culture medium containing 10% fetal bovine serum. The plate is placed in a carbon dioxide cell incubator (5% CO2) at 37° C. and incubated for 24 hours. After adding the 2-aminated methylene or 2-esterified methylene tanshinone I derivatives of different concentrations and mixing uniformly, the plate is placed in a carbon dioxide cell incubator (5% CO2) at 37° C. and incubated for 72 hours. Then the viable cell concentration is determined by the MTT method.

[7] = test system: CaES-17 (esophageal cancer cell); experiment: as above; type: cell-based; conditions: Homo sapiens, CaEs17, CaEs-17, 72 h; for IC50: read-out: IC50; for IC90: read-out: IC90
Method: as §4, §2, §5

[8] = test system: U87 MG (malignant glioma cell); experiment: as above; type: cell-based; conditions: Homo sapiens, U-87 MG, U87-MG, 72 h; for IC50: read-out: IC50; for IC90: read-out: IC90
Method: as §4, §2, §5

[9] = test system: RKO (human colon adenocarcinoma cell); experiment: as above; type: cell-based; conditions: Homo sapiens; for IC50: read-out: IC50; for IC90: read-out: IC90
Method: as §4, §2, §5

MG63 (osteosarcoma) = experiment: as above; type: cell-based; conditions: Homo sapiens, MG-63, 72 h; for IC50: read-out: IC50; for IC90: read-out: IC90
Method: as §4, §2, §5

[10] = test system: SK-OV-3 (ovarian cancer cell); experiment: as above; type: cell-based; conditions: Homo sapiens, SK-OV-3, 72 h; for IC50: read-out: IC50; for IC90: read-out: IC90
Method: as §4, §2, §5

A549 (human lung cancer) = experiment: as above; type: cell-based; conditions: Homo sapiens, A549, 72 h; for IC50: read-out: IC50; for IC90: read-out: IC90
Method: as §4, §2, §5

[11] = test system: PANC-1 (pancreatic cancer); experiment: as above; type: cell-based; conditions: Homo sapiens, PANC-1, 72 h; for IC50: read-out: IC50; for IC90: read-out: IC90
Method: as §4, §2, §5

[12] = test system: CNE (nasopharyngeal carcinoma cell); experiment: as above; type: cell-based; conditions: Homo sapiens; for IC50: read-out: IC50; for IC90: read-out: IC90
Method: as §4, §2, §5

[13] = test system: Becap37 (human breast cancer cell); experiment: as above; type: cell-based; conditions: Homo sapiens, Becap-37, 72 h; for IC50: read-out: IC50; for IC90: read-out: IC90
Method: as §4, §2, §5

[14] = test system: Hela (human cervical cancer cell); experiment: as above; type: cell-based; conditions: Homo sapiens, HeLa, 72 h; for IC50: read-out: IC50; for IC90: read-out: IC90
Method: as §4, §2, §5

[15] = test system: Hep-2 (laryngeal carcinoma); experiment: as above; type: cell-based; conditions: Homo sapiens, HEp-2, 72 h; for IC50: read-out: IC50; for IC90: read-out: IC90
Method: as §4, §2, §5

[16] = test system: Hep G2 (human liver cancer cell); experiment: as above; type: cell-based; conditions: Homo sapiens, HepG2, Hep G2, 72 h; for IC50: read-out: IC50; for IC90: read-out: IC90
Method: as §4, §2, §5

PC-3 (prostate cancer) = experiment: as above; type: cell-based; conditions: Homo sapiens, PC-3, 72 h; for IC50: read-out: IC50; for IC90: read-out: IC90
Method: as §4, §2, §5

[17] = test system: RPMI8226 (multiple myeloma); experiment: MTT growth inhibition of multiple myeloma cells, 72 h; type: cell-based, human; conditions: Homo sapiens, RPMI 8226, 72 h; for IC50: read-out: IC50; for IC90: read-out: IC90
Method: Myeloma cell lines: RPMI8226 (multiple myeloma), purchased from Fuxiang Bio-tech Co. Ltd., Shanghai, China.
as §2
as §3, with “myeloma” for “leukemia”, “cells as above” for “cells”, “1640” for “RPMI-1640”, “adding” for “adding on the second day”

IC50 [1]	IC90 [1]	IC50 [2]	IC90 [2]	IC50 [3]	IC90 [3]	IC50 [4]	IC90 [4]	IC50 [5]	IC90 [5]	IC50 [6]	IC90 [6]	IC50 [7]	IC90 [7]	IC50 [8]	IC90 [8]	IC50 [9]	IC90 [9]	IC50 (MG63 (osteosarcoma))	IC90 (MG63 (osteosarcoma))	further results	Compound
5.54 µg/mL (≈ 15.3 µM)	17.1 µg/mL (≈ 47 µM)	1.93 µg/mL (≈ 5.33 µM)	9.65 µg/mL (≈ 26.6 µM)	2.3 µg/mL (≈ 6.35 µM)	6.61 µg/mL (≈ 18.2 µM)	2.35 µg/mL (≈ 6.48 µM)	7.79 µg/mL (≈ 21.5 µM)	6.4 µg/mL (≈ 17.7 µM)	> 16 µg/mL	9.22 µg/mL (≈ 25.4 µM)	23.2 µg/mL (≈ 64.2 µM)	15.5 µg/mL (≈ 42.7 µM)	> 16 µg/mL	> 16 µg/mL	> 16 µg/mL	2.77 µg/mL (≈ 7.64 µM)	> 16 µg/mL	4.86 µg/mL (≈ 13.4 µM)	> 16 µg/mL	IC50 [10]: > 16 µg/mL; IC90 [10]: > 16 µg/mL; IC50 (A549 (human lung cancer)): 10.6 µg/mL (≈ 29.1 µM); IC90 (A549 (human lung cancer)): 24.2 µg/mL (≈ 66.9 µM); IC50 [11]: 3.08 µg/mL (≈ 8.5 µM); IC90 [11]: 13.3 µg/mL (≈ 36.8 µM); IC50 [12]: 8.5 µg/mL (≈ 23.5 µM); IC90 [12]: > 16 µg/mL; IC50 [13]: 14.2 µg/mL (≈ 39.3 µM); IC90 [13]: > 16 µg/mL; IC50 [14]: 5 µg/mL (≈ 13.8 µM); IC90 [14]: > 16 µg/mL; IC50 [15]: 6.82 µg/mL (≈ 18.8 µM); IC90 [15]: > 16 µg/mL; IC50 [16]: 10.6 µg/mL (≈ 29.2 µM); IC90 [16]: > 16 µg/mL; IC50 (PC-3 (prostate cancer)): 14.4 µg/mL (≈ 39.8 µM); IC90 (PC-3 (prostate cancer)): > 16 µg/mL; IC50 [17]: 8.4 µg/mL (≈ 23.2 µM); IC90 [17]: > 16 µg/mL	CCC(=O)OCc1oc2c(c1C)C(=O)C(=O)c1c-2ccc2c(C)cccc12 [BS-TA-A03]
2.36 µg/mL (≈ 6.79 µM)	6.15 µg/mL (≈ 17.7 µM)	0.92 µg/mL (≈ 2.65 µM)	3.01 µg/mL (≈ 8.66 µM)	1.22 µg/mL (≈ 3.51 µM)	2.69 µg/mL (≈ 7.74 µM)	0.81 µg/mL (≈ 2.33 µM)	2 µg/mL (≈ 5.76 µM)	3.3 µg/mL (≈ 9.5 µM)	6.8 µg/mL (≈ 19.6 µM)	3.86 µg/mL (≈ 11.1 µM)	7.99 µg/mL (≈ 23 µM)	5.55 µg/mL (≈ 16 µM)	10.3 µg/mL (≈ 29.8 µM)	2.36 µg/mL (≈ 6.79 µM)	3.85 µg/mL (≈ 11.1 µM)	0.49 µg/mL (≈ 1.41 µM)	14.6 µg/mL (≈ 41.9 µM)	4.53 µg/mL (≈ 13 µM)	13 µg/mL (≈ 37.4 µM)	IC50 [10]: 12.8 µg/mL (≈ 36.9 µM); IC90 [10]: 21.7 µg/mL (≈ 62.4 µM); IC50 (A549 (human lung cancer)): 0.8 µg/mL (≈ 2.3 µM); IC90 (A549 (human lung cancer)): 4.43 µg/mL (≈ 12.8 µM); IC50 [11]: 3.14 µg/mL (≈ 9.04 µM); IC90 [11]: 16 µg/mL (≈ 46.1 µM); IC50 [12]: 8.8 µg/mL (≈ 25.3 µM); IC90 [12]: 43.6 µg/mL (≈ 125 µM); IC50 [13]: 4 µg/mL (≈ 11.5 µM); IC90 [13]: 9.37 µg/mL (≈ 27 µM); IC50 [14]: 3.99 µg/mL (≈ 11.5 µM); IC90 [14]: 11 µg/mL (≈ 31.5 µM); IC50 [15]: 6.11 µg/mL (≈ 17.6 µM); IC90 [15]: 18.5 µg/mL (≈ 53.1 µM); IC50 [16]: 4.69 µg/mL (≈ 13.5 µM); IC90 [16]: 22.1 µg/mL (≈ 63.6 µM); IC50 (PC-3 (prostate cancer)): 5.39 µg/mL (≈ 15.5 µM); IC90 (PC-3 (prostate cancer)): 12.3 µg/mL (≈ 35.5 µM); IC50 [17]: 2.83 µg/mL (≈ 8.15 µM); IC90 [17]: 5.87 µg/mL (≈ 16.9 µM)	CCN(C)Cc1oc2c(c1C)C(=O)C(=O)c1c-2ccc2c(C)cccc12 [BS-TA-B03]

Source: patent publication US9328083B2, “2-aminated methylene or 2-esterified methylene tanshinone derivatives, and preparation method and application thereof” (HANGZHOU BENSHENG PHARMACEUTICAL CO., LTD., priority 2011, dated 2016)
